One data set concerns CML. To be noted: cited from earlier work.
The test system of another data set is factor VII. Briefly: Total factor VII coagulant activity in plasma. In kind it is in vivo, APOE*3Leiden.CETP mice. The source says: Pouwer et al Supplementary material
Dickinson, Franklin Lakes, New Jersey, USA). After 12 weeks of treatment, peripheral blood
CD11b+/Ly6Chigh monocytes. The following conjugated monoclonal antibodies, all from
Coagulation factor VII and VIIa
(Diagnostica Stago Inc. Parsippany, N J). For the determination of total clotting FVII an one
Histological assessment of lung morphology and atherosclerosis
The caudal lung was cross
direction of the aortic arch.

The source of these data is paper PMC6005845 (Frontiers in Cardiovascular Medicine, 2018).

`Cc1ccc(NC(=O)c2ccc(CN3CCN(C)CC3)cc2)cc1Nc1nccc(-c2cccnc2)n1` [Imatinib, imatinib]: the “relapses in treated patients” value in the data set with CML is on record as “up to 17%”.

`Cc1ccc(C(=O)Nc2ccc(CN3CCN(C)CC3)c(C(F)(F)F)c2)cc1C#Cc1cnc2cccnn12` [Ponatinib, ponatinib]: the “change of total factor VII coagulant activity (FVII) in plasma vs control” value in the data set on factor VII (3 mg/kg QD, after 12 weeks, p = 0.07) was “+28%”; in the data set on factor VII (10 mg/kg QD, after 4 weeks, p < 0.001), “+265%”.
